# Laboratory results: patent publication US20250230193A1, “CYCLIC COMPOUND HAVING SELECTIVE KRAS INHIBITORY EFFECT ON HRAS AND NRAS” (CHUGAI SEIYAKU KABUSHIKI KAISHA, priority 2022, published 2025)
# Where a SMILES comes first, the peptide text is derived from it. Bridges are numbered along the chain shown (N, C = ends). [ ]: non-standard residue; d: D form. hPhe(3-Cl-4-CF3) = N[C@@H](CCc1ccc(C(F)(F)F)c(Cl)c1)C(=O)O; NPrPhe(4-CF3) = CCCN[C@@H](Cc1ccc(C(F)(F)F)cc1)C(=O)O; NMeGly(cPent) = CN[C@H](C(=O)O)C1CCCC1; Pro(4,4-F2) = O=C(O)[C@@H]1CC(F)(F)CN1; Hyp = O=C(O)[C@@H]1C[C@@H](O)CN1; NMeD = CN[C@@H](CC(=O)O)C(=O)O; NMeL = CN[C@@H](CC(C)C)C(=O)O; NMeA = CN[C@@H](C)C(=O)O; Ac5c = NC1(C(=O)O)CCCC1; Aze = O=C(O)[C@@H]1CCN1; Ac4c = NC1(C(=O)O)CCC1; NEtG = CCNCC(=O)O; Sar = CNCC(=O)O
# How the values were obtained:
# [1] = target: GDP-bound NRAS wild-type protein (Homo sapiens, UniProt P01111); assay: Binding to NRAS by surface plasmon resonance (SPR), Single Cycle Kinetics; conditions: KD ratio NRAS/KRAS, SPR
# Chain of GDP-bound NRAS wild-type protein (P01111 whole entry): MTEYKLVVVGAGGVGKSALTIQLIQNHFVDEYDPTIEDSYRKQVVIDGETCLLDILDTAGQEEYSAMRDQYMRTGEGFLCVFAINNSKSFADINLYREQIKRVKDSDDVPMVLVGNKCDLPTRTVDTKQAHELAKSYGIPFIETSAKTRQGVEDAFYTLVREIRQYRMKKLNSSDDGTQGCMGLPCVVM
# [2] = target: GDP-bound HRAS wild-type protein (Homo sapiens, UniProt P01112); assay: Binding to HRAS by surface plasmon resonance (SPR), Single Cycle Kinetics; conditions: KD ratio HRAS/KRAS, SPR
# Chain of GDP-bound HRAS wild-type protein (P01112 whole entry): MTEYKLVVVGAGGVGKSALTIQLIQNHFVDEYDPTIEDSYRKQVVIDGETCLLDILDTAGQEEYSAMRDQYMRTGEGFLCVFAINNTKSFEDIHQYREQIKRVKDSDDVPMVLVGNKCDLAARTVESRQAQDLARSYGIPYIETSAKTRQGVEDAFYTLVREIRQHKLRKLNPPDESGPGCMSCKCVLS
Compound,NRAS/KRAS (ratio of KD value with respect to GDP-bound NRAS wild-type protein to KD value with respect to KRAS) [1],HRAS/KRAS (ratio of KD value with respect to GDP-bound HRAS wild-type protein to KD value with respect to KRAS) [2]
"CCCN1C(=O)CN(C)C(=O)CN(CC)C(=O)[C@H]([C@@H](C)CC)NC(=O)[C@H](CC(C)C)N(C)C(=O)C[C@@H](C(=O)N(C)C)N(C)C(=O)[C@H](C2CCCC2)N(C)C(=O)C2(CCCC2)NC(=O)[C@@H]2CC(F)(F)CN2C(=O)[C@H](CCc2ccc(C(F)(F)F)c(Cl)c2)NC(=O)CN(C)C(=O)[C@@H]1Cc1ccc(C(F)(F)F)cc1 [PP0425] ([NMeL]I[NEtG][Sar][NPrPhe(4-CF3)][Sar][hPhe(3-Cl-4-CF3)][Pro(4,4-F2)][Ac5c][NMeGly(cPent)][NMeD]-NMe2; lactam N-11)",B (a compound having 3 or more and less than 10 is denoted as B),C (A compound having a KD ratio of 0.1 or more and less than 3 is denoted as C)
"CCCN1C(=O)CN(C)C(=O)CN(CC)C(=O)[C@H]([C@@H](C)CC)NC(=O)[C@H](CC(C)C)N(C)C(=O)C[C@@H](C(=O)N(C)C)N(C)C(=O)[C@H](C2CCCC2)N(C)C(=O)C2(CCC2)NC(=O)[C@@H]2CC(F)(F)CN2C(=O)[C@H](CCc2ccc(C(F)(F)F)c(Cl)c2)NC(=O)CN(C)C(=O)[C@@H]1Cc1ccc(C(F)(F)F)cc1 [PP0426] ([NMeL]I[NEtG][Sar][NPrPhe(4-CF3)][Sar][hPhe(3-Cl-4-CF3)][Pro(4,4-F2)][Ac4c][NMeGly(cPent)][NMeD]-NMe2; lactam N-11)",C (A compound having a KD ratio of 0.1 or more and less than 3 is denoted as C),C (A compound having a KD ratio of 0.1 or more and less than 3 is denoted as C)
CCCN1C(=O)CN(C)C(=O)CN(CC)C(=O)[C@H]([C@@H](C)CC)NC(=O)[C@H](CC(C)C)N(C)C(=O)C[C@@H](C(=O)N(C)C)N(C)C(=O)[C@H](C2CCCC2)N(C)C(=O)C2(CCCC2)NC(=O)[C@@H]2C[C@@H](OCC)CN2C(=O)[C@H](CCc2ccc(C(F)(F)F)c(Cl)c2)NC(=O)CN(C)C(=O)[C@@H]1Cc1ccc(C(F)(F)F)cc1 [PP0427] ([NMeL]I[NEtG][Sar][NPrPhe(4-CF3)][Sar][hPhe(3-Cl-4-CF3)][Hyp](Et)[Ac5c][NMeGly(cPent)][NMeD]-NMe2; lactam N-11),B (a compound having 3 or more and less than 10 is denoted as B),C (A compound having a KD ratio of 0.1 or more and less than 3 is denoted as C)
CCCN1C(=O)CN(C)C(=O)CN(CC)C(=O)[C@H]([C@@H](C)CC)NC(=O)[C@H](CC(C)C)N(C)C(=O)C[C@@H](C(=O)N(C)C)N(C)C(=O)[C@H](C2CCCC2)N(C)C(=O)C2(CCC2)NC(=O)[C@@H]2C[C@@H](OCC)CN2C(=O)[C@H](CCc2ccc(C(F)(F)F)c(Cl)c2)NC(=O)CN(C)C(=O)[C@@H]1Cc1ccc(C(F)(F)F)cc1 [PP0428] ([NMeL]I[NEtG][Sar][NPrPhe(4-CF3)][Sar][hPhe(3-Cl-4-CF3)][Hyp](Et)[Ac4c][NMeGly(cPent)][NMeD]-NMe2; lactam N-11),B (a compound having 3 or more and less than 10 is denoted as B),C (A compound having a KD ratio of 0.1 or more and less than 3 is denoted as C)
CCCN1C(=O)CN(C)C(=O)[C@@H]2CCN2C(=O)[C@H]([C@@H](C)CC)NC(=O)[C@H](CC(C)C)N(C)C(=O)C[C@@H](C(=O)N(C)C)N(C)C(=O)[C@H](C2CCCC2)N(C)C(=O)C2(CCCC2)NC(=O)[C@@H]2CCCN2C(=O)[C@H](CCc2ccc(C(F)(F)F)c(Cl)c2)NC(=O)CN(C)C(=O)[C@@H]1Cc1ccc(C(F)(F)F)cc1 [PP0429] ([NMeL]I[Aze][Sar][NPrPhe(4-CF3)][Sar][hPhe(3-Cl-4-CF3)]P[Ac5c][NMeGly(cPent)][NMeD]-NMe2; lactam N-11),B (a compound having 3 or more and less than 10 is denoted as B),C (A compound having a KD ratio of 0.1 or more and less than 3 is denoted as C)
CCCN1C(=O)CN(C)C(=O)[C@@H]2CCN2C(=O)[C@H]([C@@H](C)CC)NC(=O)[C@H](CC(C)C)N(C)C(=O)C[C@@H](C(=O)N(C)C)N(C)C(=O)[C@H](C2CCCC2)N(C)C(=O)C2(CCC2)NC(=O)[C@@H]2CCCN2C(=O)[C@H](CCc2ccc(C(F)(F)F)c(Cl)c2)NC(=O)CN(C)C(=O)[C@@H]1Cc1ccc(C(F)(F)F)cc1 [PP0430] ([NMeL]I[Aze][Sar][NPrPhe(4-CF3)][Sar][hPhe(3-Cl-4-CF3)]P[Ac4c][NMeGly(cPent)][NMeD]-NMe2; lactam N-11),B (a compound having 3 or more and less than 10 is denoted as B),B (a compound having 3 or more and less than 10 is denoted as B)
"CCCN1C(=O)CN(C)C(=O)[C@@H]2CCN2C(=O)[C@H]([C@@H](C)CC)NC(=O)[C@H](CC(C)C)N(C)C(=O)C[C@@H](C(=O)N(C)C)N(C)C(=O)[C@H](C2CCCC2)N(C)C(=O)C2(CCCC2)NC(=O)[C@@H]2CC(F)(F)CN2C(=O)[C@H](CCc2ccc(C(F)(F)F)c(Cl)c2)NC(=O)CN(C)C(=O)[C@@H]1Cc1ccc(C(F)(F)F)cc1 [PP0431] ([NMeL]I[Aze][Sar][NPrPhe(4-CF3)][Sar][hPhe(3-Cl-4-CF3)][Pro(4,4-F2)][Ac5c][NMeGly(cPent)][NMeD]-NMe2; lactam N-11)",B (a compound having 3 or more and less than 10 is denoted as B),C (A compound having a KD ratio of 0.1 or more and less than 3 is denoted as C)
"CCCN1C(=O)CN(C)C(=O)[C@@H]2CCN2C(=O)[C@H]([C@@H](C)CC)NC(=O)[C@H](CC(C)C)N(C)C(=O)C[C@@H](C(=O)N(C)C)N(C)C(=O)[C@H](C2CCCC2)N(C)C(=O)C2(CCC2)NC(=O)[C@@H]2CC(F)(F)CN2C(=O)[C@H](CCc2ccc(C(F)(F)F)c(Cl)c2)NC(=O)CN(C)C(=O)[C@@H]1Cc1ccc(C(F)(F)F)cc1 [PP0432] ([NMeL]I[Aze][Sar][NPrPhe(4-CF3)][Sar][hPhe(3-Cl-4-CF3)][Pro(4,4-F2)][Ac4c][NMeGly(cPent)][NMeD]-NMe2; lactam N-11)",B (a compound having 3 or more and less than 10 is denoted as B),B (a compound having 3 or more and less than 10 is denoted as B)
CCCN1C(=O)CN(C)C(=O)[C@@H]2CCN2C(=O)[C@H]([C@@H](C)CC)NC(=O)[C@H](CC(C)C)N(C)C(=O)C[C@@H](C(=O)N(C)C)N(C)C(=O)[C@H](C2CCCC2)N(C)C(=O)C2(CCCC2)NC(=O)[C@@H]2C[C@@H](OCC)CN2C(=O)[C@H](CCc2ccc(C(F)(F)F)c(Cl)c2)NC(=O)CN(C)C(=O)[C@@H]1Cc1ccc(C(F)(F)F)cc1 [PP0433] ([NMeL]I[Aze][Sar][NPrPhe(4-CF3)][Sar][hPhe(3-Cl-4-CF3)][Hyp](Et)[Ac5c][NMeGly(cPent)][NMeD]-NMe2; lactam N-11),B (a compound having 3 or more and less than 10 is denoted as B),B (a compound having 3 or more and less than 10 is denoted as B)
CCCN1C(=O)[C@@H]2CCN2C(=O)[C@H](C)N(C)C(=O)[C@H]([C@@H](C)CC)NC(=O)[C@H](CC(C)C)N(C)C(=O)C[C@@H](C(=O)N(C)C)N(C)C(=O)[C@H](C2CCCC2)N(C)C(=O)C2(CCC2)NC(=O)[C@@H]2CCCN2C(=O)[C@H](CCc2ccc(C(F)(F)F)c(Cl)c2)NC(=O)CN(C)C(=O)[C@@H]1Cc1ccc(C(F)(F)F)cc1 [PP0435] ([NMeL]I[NMeA][Aze][NPrPhe(4-CF3)][Sar][hPhe(3-Cl-4-CF3)]P[Ac4c][NMeGly(cPent)][NMeD]-NMe2; lactam N-11),C (A compound having a KD ratio of 0.1 or more and less than 3 is denoted as C),C (A compound having a KD ratio of 0.1 or more and less than 3 is denoted as C)
"CCCN1C(=O)[C@@H]2CCN2C(=O)[C@H](C)N(C)C(=O)[C@H]([C@@H](C)CC)NC(=O)[C@H](CC(C)C)N(C)C(=O)C[C@@H](C(=O)N(C)C)N(C)C(=O)[C@H](C2CCCC2)N(C)C(=O)C2(CCCC2)NC(=O)[C@@H]2CC(F)(F)CN2C(=O)[C@H](CCc2ccc(C(F)(F)F)c(Cl)c2)NC(=O)CN(C)C(=O)[C@@H]1Cc1ccc(C(F)(F)F)cc1 [PP0436] ([NMeL]I[NMeA][Aze][NPrPhe(4-CF3)][Sar][hPhe(3-Cl-4-CF3)][Pro(4,4-F2)][Ac5c][NMeGly(cPent)][NMeD]-NMe2; lactam N-11)",C (A compound having a KD ratio of 0.1 or more and less than 3 is denoted as C),C (A compound having a KD ratio of 0.1 or more and less than 3 is denoted as C)
"CCCN1C(=O)[C@@H]2CCN2C(=O)[C@H](C)N(C)C(=O)[C@H]([C@@H](C)CC)NC(=O)[C@H](CC(C)C)N(C)C(=O)C[C@@H](C(=O)N(C)C)N(C)C(=O)[C@H](C2CCCC2)N(C)C(=O)C2(CCC2)NC(=O)[C@@H]2CC(F)(F)CN2C(=O)[C@H](CCc2ccc(C(F)(F)F)c(Cl)c2)NC(=O)CN(C)C(=O)[C@@H]1Cc1ccc(C(F)(F)F)cc1 [PP0437] ([NMeL]I[NMeA][Aze][NPrPhe(4-CF3)][Sar][hPhe(3-Cl-4-CF3)][Pro(4,4-F2)][Ac4c][NMeGly(cPent)][NMeD]-NMe2; lactam N-11)",C (A compound having a KD ratio of 0.1 or more and less than 3 is denoted as C),B (a compound having 3 or more and less than 10 is denoted as B)
